Patent US20100035822A1, “PROLINE-RICH PEPTIDES, PHARMACEUTICAL COMPOSITION, USE OF ONE OR MORE PEPTIDES AND METHOD OF TREATMENT” (priority 2006, published 2010)

Columns and labels:
[1] = system: SK-N-AS cells; assay: NO (nitrite) production in SK-N-AS neuroblastoma cells; assay type: cell-based, human; conditions: 24 hours incubation
Experimental: Human neurobalsotma cells (SK-N-AS, ATCC no. CRL-2137) were kept in DMEM, supplemented with 10% FBS (fetal bovine serum) and 1% non-essential amino acids, at 5% CO2 atmosphere, at 37° C., and 95% relative humidity. Cells were treated with trypsin, and replicated when an adequate cell concentration had been reached. The medium was exchanged after 12 hours, and later, every third day.
The method of Feelisch et al. (Feelisch et al., Concomitant S-, N-, and heme-nitros(yl)ation in biological tissues and fluids: implications for the fate of NO in vivo. FASEB J 16: 1775-1785, 2000) was employed to analyze NO production in the endothelial and neuronal cells described above.
Cells were grown in Petri dishes to 80% confluence. Peptide SEQ ID NO 8 was added in the concentration range of 0-8 μM to HUVEC cells, and 0-100 μM to SK-N-AS cells, and incubation continued for 24 hours. Subsequently, 1 ml of medium was retrieved (extracellular medium), and replaced by 1 ml 10 mM N-ethylmaleimide. Cells were washed in PBS, and lyzed in RIPA buffer (50 mM Tris pH 7.5, 150 mM NaCl, 1% Nonidet p-40 (NP-40) and 0.5% Na-desoxycholate, 0.1% SDS, 1 mM DTPA, and 10 mM N-ethylmaleimide). Lysats were collected and incubated on ice for 20 minutes and centrifuged. Supernatants were kept at −80° C. […] The concentration of nitrite, derived from NO, was measured in the extracellular and the intracellular media.

[2] = biological target: T1, argininosuccinate synthase (AsS) (Mus musculus, UniProt P16460); assay: Affinity chromatography of mouse kidney extract on peptide column; identification of the bound protein; assay type: binding; conditions: affinity column with SEQ ID NO 7 as ligand; crude mouse kidney extract
T1 construct: Cytosolic and membrane fractions of the renal extract (100 mg/ml total protein) were applied to separate columns; from tissue; host or cells: Balb-c mouse kidney, cytosolic and membrane fractions
T1 sequence (P16460 1-412): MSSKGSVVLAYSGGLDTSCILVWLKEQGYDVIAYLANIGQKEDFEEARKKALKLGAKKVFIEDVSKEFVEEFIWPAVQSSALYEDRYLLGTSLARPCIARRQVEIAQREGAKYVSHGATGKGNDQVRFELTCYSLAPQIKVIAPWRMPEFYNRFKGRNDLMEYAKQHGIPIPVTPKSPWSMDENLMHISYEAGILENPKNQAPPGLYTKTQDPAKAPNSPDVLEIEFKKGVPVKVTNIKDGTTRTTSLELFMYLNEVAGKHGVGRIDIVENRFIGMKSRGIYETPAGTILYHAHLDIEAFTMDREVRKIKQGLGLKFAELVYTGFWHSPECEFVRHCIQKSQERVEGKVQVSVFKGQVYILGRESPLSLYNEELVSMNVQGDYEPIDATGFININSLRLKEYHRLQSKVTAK
Experimental: Starting material were the cytosolic and plasma membrane crude extracts of mouse kidney cells homogenized in the buffer 10 mM Tris-HCl pH 7.5, 25 mM saccharose, 1 mM EDTA, and 1 mM PMSF (cytosolic fraction), or 1% Triton X-100 (plasma membrane fraction). Supernatants were dialyzed in 0.2 M NaHCO3, 0.5 M NaCl, pH 8.3, and separately applied to the affinity chromatography column Hitrap NHS-activated (GE Healthcare) coupled to 5 mg of peptide SEQ ID NO 7.
Preparing affinity columns. Columns were washed three times with 2 ml 1 mM HCl before homogeneous preparations of SEQ ID NO 7 (5 mg in 1 ml 0.2 M NaHCO3, 0.5 M NaCl, pH 8.3) were applied. After 30 min incubation at room temperature, peptides had been coupled, and the column was inactivated with buffer A (0.5 M ethanolamine, 0.5 M NaCl, pH 8.3), and washed with 0.2 M NaHCO3, 0.5 M NaCl, pH 8.3, and stored at 4° C. in 50 mM Na2HPO4, 0.1%, NaN3, pH 7.0. The columns were called HiTrap-SEQ. ID NO 7. […]
Affinity chromatography and analysis of the retained proteins by SDS-PAGE. […] Protein concentration (mg/ml) was determined by the method of Bradford (Bradford, M. M. A rapid and sensitive method for the quantitation of microgram quantities of protein utilizing the principle of protein-dye binding. Anal. Biochem. 72: 248-254, 1976) with the Protein Assay reagent from BioRad. […]

In the case of <ENWPHPQIPP [SEQ ID NO 8], the “increase of NO generation” value [1] is reported as “approximately 100%” and the “binding to the approx. 46 kDa protein (AsS) of mouse kidney extract” value [2] is reported as “capable of selectively binding”.
